Assays:
AuroraA-TPX2 = target: T1, AuroraA-TPX2 (Homo sapiens, UniProt O14965); assay: AuroraA-TPX2 Homogeneous Time Resolved Fluorescent (HTRF) kinase assay; format: biochemical; settings: average; read-out: AurA_IC50_IP (uM Avg)
T1 construct: 20 μL of AuroraA-TPX2 KD GST for a final volume of about 41 μL; GST
T1 sequence (O14965 133-383 limits assumed): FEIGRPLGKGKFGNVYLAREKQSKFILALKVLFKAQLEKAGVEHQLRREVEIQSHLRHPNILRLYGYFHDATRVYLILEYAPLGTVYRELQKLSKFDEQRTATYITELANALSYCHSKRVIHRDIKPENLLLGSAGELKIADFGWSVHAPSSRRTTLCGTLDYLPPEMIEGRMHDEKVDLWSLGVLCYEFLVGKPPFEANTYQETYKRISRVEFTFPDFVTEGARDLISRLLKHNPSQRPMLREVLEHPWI
T1 sequence (Q9ULW0 1-43 partner limits assumed): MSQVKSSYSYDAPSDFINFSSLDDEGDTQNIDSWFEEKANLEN
Experimental: AuroraA-TPX2-Homogeneous Time Resolved Fluorescent (HTRF) Kinase Assay:
The Aurora-A HTRF assay begins with Aurora-A in the presence of ATP phosphorylating the biotinylated peptide PLK. The reaction incubates for about 120 min. Detection reagents are added to quench the reaction. These agents stop the reaction by diluting out the enzyme and chelating the metals due to the presence of EDTA. After addition, the assay is incubated overnight to allow the detection reagents to equilibrate.
The AuroraA HTRF assay comprises 1 μL of compound in 100% DMSO, 20 μL of ATP and biotinylated PLK, and 20 μL of AuroraA-TPX2 KD GST for a final volume of about 41 μL. The final concentration of PLK is about 1 μM. […] Buffer conditions are as follows: 60 mM HEPES pH 7.5, 25 mM NaCl, 10 mM MgCl, 2 mM DTT, 0.05% BSA.
(§1) The assay is quenched and stopped with 160 μL of detection reagent. Detection reagents are as follows: Buffer made of 50 mM Tris, pH 7.5, 100 mM NaCl, 3 mM EDTA, 0.05% BSA, 0.1% Tween20. Added to this buffer prior to reading is Steptavidin allophycocyanin (SA-APC) at a final conc in the assay of 0.0005 mg/mL, and europilated anti-phosphoPLK Ab (Eu-anti-PLK) at a final conc of 0.02 nM.
The assay plate is read in either a Discovery or a RubyStar. The eu-anti-PLK is excited at 320 nm and emits at 615 nm to excite the SA-APC which in turn emits at 655 nm.

AuroraB = target: T2, AuroraB (Homo sapiens, UniProt Q96GD4); assay: AuroraB Homogeneous Time Resolved Fluorescent (HTRF) kinase assay; format: biochemical; settings: average; read-out: AurB_IC50_IP (uM Avg)
T2 construct: 20 μL of AuroraB FL H is for a final volume of 41 μL; His
T2 sequence (Q96GD4 whole entry): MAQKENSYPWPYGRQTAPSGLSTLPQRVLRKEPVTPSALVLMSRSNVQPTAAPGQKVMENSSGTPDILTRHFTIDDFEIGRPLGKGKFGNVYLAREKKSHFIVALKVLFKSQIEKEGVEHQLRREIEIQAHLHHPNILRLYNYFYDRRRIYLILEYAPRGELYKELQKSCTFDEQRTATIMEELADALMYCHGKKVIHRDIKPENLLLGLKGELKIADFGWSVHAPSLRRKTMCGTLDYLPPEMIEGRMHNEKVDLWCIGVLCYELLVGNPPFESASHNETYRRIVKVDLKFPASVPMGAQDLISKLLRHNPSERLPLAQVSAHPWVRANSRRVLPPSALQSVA
Experimental: AuroraB-Homogeneous Time Resolved Fluorescent (HTRF) Kinase Assay:
The AuroraB HTRF assay begins with AuroraB in the presence of ATP phosphorylating the biotinylated peptide Histone H3. The reaction incubates for about 90 min. the reaction is quenched by addition of detection reagents, which stop the reaction by diluting out the enzyme and chelating the metals due to the presence of EDTA. After addition, the assay is incubated for about 60 min to allow detection reagents to equilibrate.
The AuroraB HTRF assay comprises 1 μL of compound in 100% DMSO, 20 μL of ATP and biotinylated Histone H3, and 20 μL of AuroraB FL H is for a final volume of 41 μL. The final concentration of Histone H3 is 0.1 μM. […] Buffer conditions are as follows: 50 mM HEPES pH 7.5, 5 mM NaCl, 0.5 mM MgCl, 0.5 mM MnCl, 2 mM DTT, 0.05% BSA.
as §1, with “0.001” for “0.0005”, “anti-phosphoHistoneH3” for “anti-phosphoPLK”, “(Eu-anti-HisH3)” for “(Eu-anti-PLK)”, “0.064” for “0.02”
The assay plate is read in either a Discovery or a RubyStar. The eu-anti-HisH3 is excited at 320 nm and emits at 615 nm to excite the SA-APC which in turn emits at 655 nm.

Row | IC50 (AuroraA-TPX2) | IC50 (AuroraB) | SMILES
1 | 0.011 µM | 0.03 µM | COc1cnc2c(Oc3ccc(Nc4nnc(-c5ccc6c(c5)OCO6)c5ccccc45)cc3)ccnc2c1 [compound 306, 4-(1,3-benzodioxol-5-yl)-N-(4-((7-(methyloxy)-1,5-naphthyridin-4-yl)oxy)phenyl)-1-phthalazinamine]
2 | > 25 µM | > 5 µM | c1ccc(-c2nnc(Nc3ccc(Sc4ncnc5ccccc45)cc3)c3ccccc23)cc1 [compound 561]
3 | 0.054 µM | 0.003 µM | c1ccc(-c2nnc(Nc3ccc(Sc4ccnc5cccnc45)cc3)c3ccccc23)cc1 [compound 309, N-(4-(1,5-naphthyridin-4-ylthio)phenyl)-4-phenyl-1-phthalazinamine]
4 | 0.672 µM | 0.006 µM | CCCc1cc(-c2ccccc2)nnc1Nc1ccc(Oc2ccnc3cc(C#N)ccc23)cc1 [compound 196, 4-((4-((6-phenyl-4-propyl-3-pyridazinyl)amino)phenyl)oxy)-7-quinolinecarbonitrile]
5 | 0.026 µM | 0.007 µM | CCc1ccc(-c2nnc(Nc3ccc(Oc4ccnc5cc(OC)cnc45)cc3)c3ccccc23)cc1 [compound 221, 4-(4-ethylphenyl)-N-(4-((7-(methyloxy)-1,5-naphthyridin-4-yl)oxy)phenyl)-1-phthalazinamine]
6 | 0.029 µM | 0.013 µM | COc1cc2c(Oc3ccc(Nc4nnc(-c5ccccc5)c5ccccc45)cc3)ccnc2cc1O [compound 422]
7 | 0.122 µM | 0.012 µM | Cc1ccc(-c2nnc(Nc3ccc(Oc4ccnc5ccncc45)cc3)c3ccccc23)nc1 [compound 432]
8 | 0.006 µM | 0.004 µM | COc1cnc2c(Oc3ccc(Nc4nnc(-c5ccc(C)cc5)c5ccccc45)cc3F)ccnc2c1 [compound 187, N-(3-fluoro-4-((7-(methyloxy)-1,5-naphthyridin-4-yl)oxy)phenyl)-4-(4-methylphenyl)-1-phthalazinamine]
9 | 0.352 µM | 0.022 µM | COc1cnc2c(Sc3ccc(Nc4nnc(N5CCN(C(C)=O)CC5)c5ccccc45)cc3)ccnc2c1 [compound 608]
10 | 0.078 µM | 0.033 µM | COc1cnc2c(Sc3ccc(Nc4nnc(-c5ccc(C)c(O)c5)c5ccccc45)cc3)ccnc2c1 [compound 451]
11 | 0.028 µM | 0.057 µM | COc1cnc2c(Oc3ccc(Nc4nnc(-c5ccccc5)c5c4CCC5)cc3)ccnc2c1 [compound 367, N-(4-(7-methoxy-1,5-naphthyridin-4-yloxy)phenyl)-4-phenyl-6,7-dihydro-5H-cyclopenta[d]pyridazin-1-amine]
12 | 0.008 µM | 0.007 µM | COc1cnc2c(Oc3ccc(Nc4nnc(-c5ccc6sccc6c5)c5ccccc45)cc3)ccnc2c1 [compound 142, 4-(1-benzothien-5-yl)-N-(4-((7-(methyloxy)-1,5-naphthyridin-4-yl)oxy)phenyl)-1-phthalazinamine]
13 | 0.02 µM | 0.037 µM | COc1cnc2c(Sc3ccc(Nc4nnc(-c5ccc(C)c(OC)c5)c5ccccc45)cc3)ccnc2c1 [compound 529]

Second part, the molecule before the results:

Row | SMILES | IC50 (AuroraA-TPX2) | IC50 (AuroraB)
14 | Cc1cc2nccc(Sc3ccc(Nc4nnc(-c5ccc(Cl)cc5)c5ccccc45)cc3)c2o1 [compound 491] | 0.15 µM | 0.039 µM
15 | COc1cc2nccc(Oc3ccc(Nc4nnc(-c5cccc(CO)n5)c5ccccc45)cc3)c2cc1OC [compound 112, (6-(4-((4-((6,7-bis(methyloxy)-4-quinolinyl)oxy)phenyl)amino)-1-phthalazinyl)-2-pyridinyl)methanol] | 0.015 µM | 0.003 µM
16 | COc1cnc2c(Oc3ccc(Nc4nnc(-c5ccc(Cl)cc5)c5ccccc45)cn3)ccnc2c1 [compound 222, 4-(4-chlorophenyl)-N-(6-((7-(methyloxy)-1,5-naphthyridin-4-yl)oxy)-3-pyridinyl)-1-phthalazinamine] | 0.047 µM | 0.006 µM
17 | CNC(=O)c1cc(Oc2ccc(Nc3nnc(-c4ccc(Cl)cc4)c4ccccc34)cc2)ccn1 [compound 361, 4-(4-(4-(4-chlorophenyl)phthalazin-1-ylamino)phenoxy)-N-methylpicolinamide] | 0.245 µM | 0.173 µM
18 | COc1cnc2c(Sc3ccc(Nc4nnc(N5CCN6CCCC[C@@H]6C5)c5ccccc45)cc3)ccnc2c1 [compound 580] | 0.023 µM | 0.005 µM
19 | COc1cnc2c(Oc3ccc(Nc4nnc(-c5ccc(C)c(OC)c5)c5ccccc45)cc3)ccnc2c1 [compound 525] | 0.013 µM | 0.028 µM
20 | COc1cnc2c(Oc3ccc(Nc4nnc(-c5ccc(N(C)C)cc5)c5ccccc45)cc3)ccnc2c1 [compound 194, 4-(4-(dimethylamino)phenyl)-N-(4-((7-(methyloxy)-1,5-naphthyridin-4-yl)oxy)phenyl)-1-phthalazinamine] | 0.023 µM | 0.01 µM
21 | COc1cnc2c(Oc3ccc(Nc4nnc(N5CCN(C)CC5)c5ccccc45)cc3)ccnc2c1 [compound 85, N-(4-((7-(methyloxy)-1,5-naphthyridin-4-yl)oxy)phenyl)-4-(4-methyl-1-piperazinyl)-1-phthalazinamine] | 0.066 µM | 0.004 µM
22 | COc1cc2c(Oc3ccc(Nc4nnc(-c5ccccc5)c5ccccc45)cc3)ccnc2cc1OCc1ccccc1 [compound 326, N-(4-((6-(methyloxy)-7-((phenylmethyl)oxy)-4-quinolinyl)oxy)phenyl)-4-phenyl-1-phthalazinamine] | 0.026 µM | 0.039 µM
23 | COc1ccc(-c2nnc(Nc3ccc(Sc4ccnc5cccnc45)cc3)c3ccccc23)cn1 [compound 509] | 0.317 µM | 0.013 µM
24 | COc1ccc2c(C(O)c3ccc(Nc4nnc(-c5ccc(Cl)cc5)c5ccccc45)cc3)ccnc2c1 (stereo not drawn) [compound 614] | 0.223 µM | 0.046 µM
25 | COc1cnc2c(Oc3ccc(Nc4nnc(-c5ccc6sc(C)nc6c5)c5ccccc45)cc3)ccnc2c1 [compound 195, 4-(2-methyl-1,3-benzothiazol-5-yl)-N-(4-((7-(methyloxy)-1,5-naphthyridin-4-yl)oxy)phenyl)-1-phthalazinamine] | 0.088 µM | 0.005 µM
26 | Cc1ccc(-c2nnc(Nc3ccc(Oc4ccnc5ccoc45)cc3)c3ccccc23)cc1N [compound 480] | 0.162 µM | 0.013 µM
27 | COc1cnc2c(Oc3ccc(Nc4nnc(-c5ccc(C(N)=O)cc5)c5ccccc45)cc3)ccnc2c1 [compound 177, 4-(4-((4-((7-(methyloxy)-1,5-naphthyridin-4-yl)oxy)phenyl)amino)-1-phthalazinyl)benzamide] | 0.206 µM | 0.004 µM
28 | COc1cnc2c(Sc3ccc(Nc4nnc(C5=CCNCC5)c5ccccc45)cc3)ccnc2c1 [Example 401, N-(4-(7-Methoxy-1,5-naphthyridin-4-ylthio)phenyl)-4-(1,2,3,6-tetrahydropyridin-4-yl)phthalazin-1-amine] | 0.847 µM | 0.052 µM
29 | COc1ccc2nccc(Oc3ccc(Nc4nnc(-c5cc(C)cs5)c5ccccc45)cc3)c2n1 [compound 552] | 0.056 µM | 0.036 µM
30 | Cc1ccc(-c2nnc(Nc3ccc(Oc4ccnc5cc(-c6cncn6C)sc45)cc3)c3ccccc23)cc1 [compound 203, N-(4-((2-(1-methyl-1H-imidazol-5-yl)thieno[3,2-b]pyridin-7-yl)oxy)phenyl)-4-(4-methylphenyl)-1-phthalazinamine] | 0.008 µM | 0.002 µM
